# Reference: publication PMC10949195, “Exponential Combination of a and e/g Intracellular Peptide Libraries Identifies a Selective ATF3 Inhibitor” (ACS Chemical Biology, 2024)
# T1: ATF3 (Homo sapiens, UniProt P18847)
# T1 construct: We focus on the selective targeting of the ATF3 leucine zipper dimerization domain using intracellular peptide library screening; made in house; host or cells: chemical solid-phase peptide synthesis (no expression host)
# T1 sequence (P18847 110-143): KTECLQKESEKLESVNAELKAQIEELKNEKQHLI
# T2: ATF3W_aeg (synthetic construct)
# T2 chain: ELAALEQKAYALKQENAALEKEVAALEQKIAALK
# Assays:
# [1] = tested on: M2 macrophages differentiated from the human THP-1 monocytic cell line; assay: THP-1 polarization assay and CCL-4 ELISA; type: cell-based; settings: M2 macrophages from THP-1 (IL-4 polarized); 20 μM peptide with NLS-TAT appendage; 48 h; versus untreated
# Source text: ATF3 is a transcriptional repressor that regulates both the extent and duration of pro-inflammatory gene expression.[17] Specifically, ATF3 has been implicated in the transcriptional repression of chemokines including chemokine (C–C motif) ligand 4 (CCL4),[18] also known as macrophage inflammatory protein (MIP-1β), which promotes recruitment of additional immune cells to inflamed tissues. In the context of cancer, ATF3 activity counters antitumor immunity and promotes tumor growth. We therefore explored the effect of the ATF3W-aeg antagonist peptide on CCL4 expression in M2 anti-inflammatory macrophages differentiated from the human THP-1 monocytic cell line. […]
# Figure 10 ATF3W-aeg peptide stimulates expression of pro-inflammatory cytokine in M2 macrophages. CCL4 protein levels were measured by ELISA from supernatants of M2 macrophage cultures treated with either 20 μM ATF3W-aeg or negative control peptide (****p < 0.0001). […]
# THP-1 cells were seeded in 12-well format at a concentration of 5 × 10^5 cells/well and treated with 7.5 ng/mL Phorbol 12-Myristate 13-Acetate (PMA, Sigma-Aldrich) in RPMI media supplemented with 10% FBS and 55 μM β-mercaptoethanol (BME). […] After 48 h, supernatants were collected and clarified by centrifugation, and the CCL-4 concentration was assessed by ELISA (MIP-1b Human Instant ELISA Kit, ThermoFisher Scientific) according to the manufacturer’s protocol.
# ATF3 = target: T1, ATF3; assay: CD thermal denaturation of peptide mixed 1:1 with ATF3; type: binding; settings: peptide incubated with ATF3; CD signal at 222 nm, 1 °C increments; 150 μM total peptide; 10 mM potassium phosphate, 100 mM potassium fluoride, pH 7.0; two-state denaturation model
# Source text: Following the observed significant increase in global secondary structure content for the ATF3-ATF3W_aeg complex relative to component peptides (Figure 6), we next analyzed the stability of the complex by undertaking thermal denaturation experiments (Figure 7). […] Moreover, consistent with spectral data, the clear increase from the average profile of the component peptides relative to that of the measured is most pronounced in the combined construct (Figure 7, red hash vs black). This provides robust additional evidence for a preferential interaction between ATF3 and ATF3W_aeg that is improved over either the core a or electrostatic e/g constructs.
# Shown are thermal stabilities of peptide pairs measured via temperature dependence of the CD signal at 222 nm. The thermal denaturation profiles for (a) ATF3-ATF3W_a, (b) ATF3-ATF3W_eg, and (c) ATF3-ATF3W_aeg show a substantial increase in the transition midpoint (Tm = 59 °C) relative to component peptides (black vs red hash). Experiments were performed in 10 mM potassium phosphate and 100 mM potassium fluoride (pH 7.0). All spectra were recorded at 1 °C increments at a total peptide concentration of 150 μM and fitted to a two-state denaturation model.
# Thermal denaturation experiments were performed at 150 μM total protein concentration in 10 mM potassium phosphate and 100 mM potassium fluoride, pH 7, using an Applied Photophysics Chirascan CD instrument (Leatherhead, UK) as previously described.[23]
# ATF3W_aeg = target: T2, ATF3W_aeg; assay: ITC
molecule,measurement,setting,value
"Ac-KAAALKQKAYALKQQIAALKKQVAALKQKIAALKPKKKRKVYGRKKRRQRRR-NH2 [Fra1W-NLS TAT, reference compound]","effect on CCL4 expression (protein in supernatant, ELISA)",[1],no effect
EAAALEQKIYALKQEAAALEKEIAALEQKAAALK [ATF3W_eg],transition midpoint (Tm) of heterodimer with ATF3,ATF3,52 °C
QLAALQQQAYALQQQNAALQKQVAALQQQIAALQ [ATF3W_a],transition midpoint (Tm) of heterodimer with ATF3,ATF3,26 °C
TECLQKESEKLESVNAELKAQIEELKNEKQHLIYM [ATF3 leucine zipper],Kd,ATF3W_aeg,151 nM
